pIC50, pKi: −log10 of the molar value.
Legend:
Thymidylate synthase [1] = molecular target: T1, Thymidylate synthase (Homo sapiens, UniProt P04818); test: Ability to inhibit thymidylate synthase derived from human leukemia K562 cells; format: cell-based
Thymidylate synthase [2] = molecular target: T1, Thymidylate synthase; test: Inhibitory constant of thymidylate synthase was determined in human AML cells; format: cell-based
Thymidylate synthase [3] = molecular target: T1, Thymidylate synthase; test: Inhibitory activity against human thymidylate synthase derived either from HeLa or KB cells; format: cell-based
Thymidylate synthase [4] = molecular target: T2, Thymidylate synthase (Lactobacillus casei, UniProt P00469); test: Ability to inhibit thymidylate synthase derived from Lactobacillus casei; design: species or system Lacticaseibacillus casei
T2 sequence (P00469 whole entry): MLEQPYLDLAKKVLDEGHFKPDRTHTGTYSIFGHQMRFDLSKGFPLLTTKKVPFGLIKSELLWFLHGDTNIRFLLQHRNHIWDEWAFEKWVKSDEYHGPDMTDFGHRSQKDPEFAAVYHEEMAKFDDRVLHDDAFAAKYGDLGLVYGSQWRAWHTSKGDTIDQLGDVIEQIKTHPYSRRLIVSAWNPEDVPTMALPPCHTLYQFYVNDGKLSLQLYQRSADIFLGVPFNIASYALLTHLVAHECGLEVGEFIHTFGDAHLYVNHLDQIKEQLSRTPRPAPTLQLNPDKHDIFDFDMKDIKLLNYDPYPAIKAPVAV

T1 sequence (P04818 whole entry): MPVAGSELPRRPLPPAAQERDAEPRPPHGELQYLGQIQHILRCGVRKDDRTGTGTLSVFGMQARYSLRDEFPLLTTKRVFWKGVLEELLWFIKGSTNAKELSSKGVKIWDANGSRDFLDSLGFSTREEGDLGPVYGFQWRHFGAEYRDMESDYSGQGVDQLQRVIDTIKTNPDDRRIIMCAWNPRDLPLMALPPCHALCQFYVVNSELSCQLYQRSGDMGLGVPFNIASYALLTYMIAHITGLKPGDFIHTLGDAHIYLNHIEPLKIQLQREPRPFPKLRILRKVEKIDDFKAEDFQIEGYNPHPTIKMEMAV

Row | pIC50 (Thymidylate synthase [1]) | Structure (SMILES) | further results
1 | 5.90 | C#CCN(Cc1ccc2nc(N)nc(N)c2n1)c1ccc(C(=O)NC(CCC(=O)O)C(=O)O)cc1 (stereo unspecified) | –
2 | – | C#CN(Cc1cnc2nc(N)nc(N)c2n1)c1ccc(C(=O)NC(CCC(=O)O)C(=O)O)cc1 (stereo unspecified) | pIC50 (Thymidylate synthase [3]): 7.70
3 | 6.54 | CN(Cc1ccc2nc(N)[nH]c(=O)c2c1)c1ccc(C(=O)N[C@@H](CCC(=O)O)C(=O)O)cc1 | –
4 | 5.60 | CN(Cc1ccc2nc(N)[nH]c(=O)c2n1)c1ccc(C(=O)N[C@@H](CCC(=O)O)C(=O)O)cc1 | –
5 | 5.62 | C#CCN(Cc1ccc2nc(N)[nH]c(=O)c2n1)c1ccc(C(=O)N[C@@H](CCC(=O)O)C(=O)O)cc1 | –
6 | 5.26 | C#CCN(Cc1cnc2nc(N)[nH]c(=O)c2n1)c1ccc(C(=O)N[C@@H](CCC(=O)O)C(=O)O)cc1 | pIC50 (Thymidylate synthase [4]): 5.41
7 | – | CN(Cc1cnc2nc(N)[nH]c(=O)c2n1)c1ccc(C(=O)N[C@@H](CCC(=O)O)C(=O)O)cc1 [METHOPTERINE] | pKi (Thymidylate synthase [2]): 6.00

Row | Structure (SMILES) | pIC50 (Thymidylate synthase [1]) | further results
8 | Nc1nc2ncc(CNc3ccc(C(=O)N[C@@H](CCC(=O)O)C(=O)O)cc3)nc2c(=O)[nH]1 [FOLIC ACID] | 3.54 | pKi (Thymidylate synthase [2]): 4.40
9 | Nc1nc(O)c2nc(CNc3ccc(C(=O)N[C@@H](CCC(=O)O)C(=O)O)cc3)ccc2n1 | 4.26 | –
